Data taken from patent US10775375B2, “Methods for identifying modulators of calcium-sensing receptors” (MARS, INCORPORATED, priority 2014, dated 2020).
pEC50: −log10 of the molar value. Where two headings read alike, the source gives them in different places.

Target: T1, feline calcium-sensing receptor (fCaSR) (Felis catus, UniProt C7FF08, X1044R)
T1 sequence (C7FF08 1-1081 X1044R): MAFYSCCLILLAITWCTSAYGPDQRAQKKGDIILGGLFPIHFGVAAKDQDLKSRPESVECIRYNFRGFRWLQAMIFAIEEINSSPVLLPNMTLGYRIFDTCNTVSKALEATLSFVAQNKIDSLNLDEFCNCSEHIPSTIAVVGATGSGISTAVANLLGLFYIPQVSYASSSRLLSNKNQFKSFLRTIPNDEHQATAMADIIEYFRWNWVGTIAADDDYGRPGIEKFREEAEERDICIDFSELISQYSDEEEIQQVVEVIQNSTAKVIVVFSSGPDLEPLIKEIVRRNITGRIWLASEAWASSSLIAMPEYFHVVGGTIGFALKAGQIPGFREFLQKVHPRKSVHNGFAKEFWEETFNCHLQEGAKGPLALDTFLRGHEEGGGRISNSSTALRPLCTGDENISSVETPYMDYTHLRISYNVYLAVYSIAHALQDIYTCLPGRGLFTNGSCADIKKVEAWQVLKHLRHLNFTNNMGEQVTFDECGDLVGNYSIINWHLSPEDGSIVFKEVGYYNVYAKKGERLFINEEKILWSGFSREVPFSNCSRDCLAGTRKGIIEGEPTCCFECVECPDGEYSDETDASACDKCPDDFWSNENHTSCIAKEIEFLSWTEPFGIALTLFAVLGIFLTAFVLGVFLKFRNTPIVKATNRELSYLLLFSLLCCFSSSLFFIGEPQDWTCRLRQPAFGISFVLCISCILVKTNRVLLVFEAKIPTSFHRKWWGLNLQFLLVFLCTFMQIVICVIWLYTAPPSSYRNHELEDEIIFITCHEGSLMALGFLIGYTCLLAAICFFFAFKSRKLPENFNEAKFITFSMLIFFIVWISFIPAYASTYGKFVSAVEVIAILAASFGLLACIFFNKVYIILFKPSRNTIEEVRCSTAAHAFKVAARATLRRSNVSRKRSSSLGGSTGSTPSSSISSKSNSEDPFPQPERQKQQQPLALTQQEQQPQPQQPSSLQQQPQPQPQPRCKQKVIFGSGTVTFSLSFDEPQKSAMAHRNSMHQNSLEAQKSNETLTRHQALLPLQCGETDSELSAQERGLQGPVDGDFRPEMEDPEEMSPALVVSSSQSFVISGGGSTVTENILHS
Assay: In vitro cellular luminescence assay for activation of fCaSR (HEK T-Rex/natClytin clone K 5.1, FLIPR Tetra), agonist mode and PAM mode
Type: cell-based
Conditions: for CaSR agonists and PAMs (mode of action on CaSR): classification as agonist, PAM or not active
From the text: Summary. The full length coding sequence of the calcium-sensing receptor (CaSR, a GPCR (3, C or Glutamate family), naturally coupled to Gαq/11 and Gαi (ligand-directed signaling)) from Felis catus (fCaSR) having the sequence described by SEQ ID NO: 7 was synthesized and sub-cloned into suitable expression vectors. The cat CaSR expression constructs were stably transfected in two mammalian cell lines, the HEK-natClytin and the HEK T-Rex/natClytin, two cell lines that allow for detection of changes in intracellular calcium levels through luminescence. A pure selected clone (K 5.1) was used to analyze 12 CaSR ligands (including calcium as a reference agonist control) in a high-throughput screening (HTS) multi-plate test for agonist and positive allosteric modulator (PAM) effects.
A final pure selected clone (K 5.1) was analyzed in a HTS multi-plate test for agonist or positive allosteric modulator (PAM) effects of 12 CaSR ligands (including calcium as a reference agonist control). 10.000 cw of K 5.1 were seeded on poly-D-lys coated 384 well MTPs in medium containing 1 μg/mL of Doxycycline. Screening with the 12 ligands (including calcium control) was conducted 24 hours later. […] For each ligand that activated CaSR as an agonist or PAM, the EC50 value of the ligand was determined.
Detection of CaSR receptor activation. Transfected cells were analyzed for a response to a reference agonist (calcium) or various CaSR ligands by detecting Ca^2+ sensitive photoprotein luminescence. The experiments were performed in a 384 well format according to one of the following procedures: • 7.500 cw were plated on poly-D-lys coated 384 well microtiter plates (MTPs). 24 h later, medium was manually discarded and replaced with fresh medium containing 1 μg/mL of Doxycycline. Experiments were then carried out 48 h after seeding. • 10.000 cw were plated on poly-D-lys coated 384 well MTPs in medium containing 1 μg/mL of Doxycycline. Experiments were carried out 24 hrs later.
On the day of the experiment, medium was removed by plate overthrow and tapping on a paper towel. Cells were then incubated for 3-4 hrs at 37° C. with 10 μM coelenterazine dissolved in 2 mM Ca^2+ or Ca^2+-Free Tyrode's Buffer (20 μL). Cells were exposed to calcium control and/or ligand and the luminescence changes over a period of 1 minute (at 35.000 gain of sensitivity) were monitored using a FLIPR® Tetra screening system. For agonist evaluation, a single exposure protocol was applied (ligands 1º injection, 20 μL-2×), whereas for PAM evaluation a double injection protocol was applied as following: • 1° injection: ligands dose-response (20 μL-2×) • 2° injection: Reference agonist EC20 (20 μL-3×) • Data Analysis. FLIPR® Tetra measurements were analysed with Screenworks© software (Molecular Devices, Version 3.0.1.4) and data were exported as Maximum statistics of Absolute Response (RLU) calculated after compound injection. RLU is obtained applying “Subtract Bias on Sample n” (where n=Time point of compound injection). Mean and standard deviation values were calculated on the exported data with Excel software, and then values were used to create sigmoidal dose-response curves (variable slope) or histograms with GraphPad PRISM® software (Version 6). The obtained EC50/IC50 values were used to calculate EC50/[…] values according to the following formula: ECX=[(X/100−X)1/HillSlope]*EC50
Cell lines, Medium and Culture Conditions. The experiments were done using HEK-natClytin or HEK T-Rex/natClytin reporter cell lines that were generated by stable transfection of the photoprotein natClytin into HEK-293 or HEK-293 T-Rex (HEK T-Rex, Invitrogen) cell lines respectively.
For experimental conditions, cells were plated on poly-D-lys coated 384 well MTPs according to one of the following conditions: • 7.500 cw.

| Compound | CaSR agonists and PAMs (mode of action on CaSR) | pEC50 | also measured |
| --- | --- | --- | --- |
| Calindol | Calindol (PAM) | – | CaSR agonists and PAMs (mode of action on CaSR) (listed as calindol): activated CaSR as PAMs |
| NCCCNCCCCNCCCN [Spermine] | Spermine (agonist) | – | – |
| NC(CCC(=O)NC(CS)C(=O)NCC(=O)O)C(=O)O [L-Glutathione, L-Glutathione (γ-Glu-Cys-Gly)] | L-Glutathione (agonist) | – | pEC50 (agonist mode, single injection, HEK T-Rex/natClytin-fCaSR clone K 5.1, photoprotein luminescence, tested up to the MAX dose in c1/c2, read-out: Agonist EC50): 2.09 |
| NCC1O[C@H](O[C@@H]2C(N)C[C@@H](N)C(O)C2O[C@@H]2O[C@H](CO)C(OC3O[C@@H](CN)C(O)C(O)[C@H]3N)C2O)C(N)C(O)[C@@H]1O (some centres unmarked) [Neomycin] | Neomycin (agonist) | 2.00 | – |
| O.O.[Ca+2].[Cl-].[Cl-] [Calcium (Ca^2+), Calcium chloride (dihydrate)] | (agonist) | – | – |
| NCCCCNCCCN [Spermidine] | Spermidine (agonist) | 2.89 | – |
| Poly-L-Arginine | Poly-L-Arginine (agonist) | – | Agonist EC50 (agonist mode, single injection, HEK T-Rex/natClytin-fCaSR clone K 5.1, MAX dose 60 μg/mL): 4.6 µg/mL |
| NCCCCN [Putrescine] | Putrescine (not active) | – | – |
| Magnesium chloride (hexahydrate) [Magnesium (Mg^2+)] | (agonist) | – | – |
| C[C@@H](NCCCc1cccc(C(F)(F)F)c1)c1cccc2ccccc12 [Cinacalcet] | Cinacalcet (PAM) | 6.00 | CaSR agonists and PAMs (mode of action on CaSR) (listed as cinacalcet): activated CaSR as PAMs |
